Results as given in article PMC11813584, “An odorant-binding protein functions in fire ant social immunity interfacing with innate immunity” (Open Biology, 2025).
“Also recorded” adds a separate entry of the source. Read-outs that look alike come from different tables or passages of the source.

Assays:
S. invicta workers = assay: Dismemberment behavioural assay; format: in vivo, Solenopsis invicta; details: for dismemberment behaviour towards freeze-killed ants treated with the compound: healthy / untreated and GFP-RNAi workers, compared to freeze-killed control ants; for effect on behaviour: corpse-dismemberment of freeze-killed conspecifics treated with the chemical; for corpse dismemberment, RNAi targeting SiOBP15 + SiApoLp-III: dual RNAi; for corpse dismemberment, RNAi targeting SiOBP15 + SiApoLp-III / corpse dismemberment, RNAi targeting SiApoLp-III / corpse dismemberment, RNAi targeting SiFABP5 / corpse dismemberment, RNAi targeting SiOBP15 / corpse dismemberment, GFP RNAi (control) workers: freeze-killed corpses + chemical; for corpse dismemberment, RNAi targeting SiOBP15 + SiApoLp-III / corpse dismemberment, RNAi targeting SiApoLp-III / corpse dismemberment, RNAi targeting SiFABP5 / corpse dismemberment, RNAi targeting SiOBP15: compared to freeze-killed workers treated with the same chemical; for corpse dismemberment, GFP RNAi (control) workers: compared to freeze-killed, no additions
Experimental: Fresh corpses of workers killed by either rapid immersion in liquid nitrogen were collected and maintained at −80°C until use. Infection was performed by immersing workers for 5 s in 1 × 10^8 suspensions of fungal conidia. Infected workers were kept in isolated boxes until mortality (3–4 days) and were then used immediately for dismemberment assays. Each technical replicate of a dismemberment assay used five workers selected from different treatment groups (i.e. killed by freezing, killed by B. bassiana or subjected to another treatment as indicated). Of the five ‘killed’ workers, […] near the edge of the container in a ‘+’ pattern of a plastic container (9 cm diameter) and one in the centre. To each container was added 15 healthy workers or 15 workers treated as described below (e.g. RNAi treated). Containers contained an Eppendorf tube with a sterile solution of 5% sucrose. Corpse-dismemberment behaviour was assessed every 12 h for three consecutive days, and corpse limbs or other parts that were dismembered were counted. The corpse-dismemberment percentage was calculated by dividing the total number of dismembered parts (5 corpses × 10 body parts/each cage/3 days). Each experiment contained three technical replicates, and the entire experiment was repeated at least three times.
The specific dsRNA primers used in this study were synthesized using an in vitro transcription T7 kit (TAKARA, Dalian, China; electronic supplementary material, table S1). dsRNA concentrations were measured using a NanoVue Plus spectrophotometer (GE Healthcare Life Sciences, Little Chalfont, UK). In total, 50 nl of dsRNA of either the target genes or DsRNA-GFP (control) at indicated concentrations (up to 3000 ng μl^−1) were injected into each worker. Dismemberment assays were performed as above with three technical replicates, and each experiment was repeated at least three times using three different batches of ants. RNAi efficiencies was analysed by qRT-PCR.

SiOBP15 = SiOBP15 (Solenopsis invicta, UniProt F1DI94); assay: 1-NPN fluorescent binding / competition (displacement) assay, purified SiOBP15; details: for binding to SiOBP15 (in words): 1-NPN competition, SiOBP15 alone
Experimental: (§1) The ORFs corresponding to SiOBP15, SiApoLp-III and SiFABP5 were separately cloned into the pET28a expression vector as His-tag fusion proteins. The integrity of plasmid constructs was verified by sequencing and plasmids were transformed into the Escherichia coli BL21 strain for heterologous protein expression. Proteins were purified using a nickel affinity (NI) resin (Ni-Sepharose Cl-6B agarose) according to the manufacturer’s protocol. Purified proteins were analysed by SDS–PAGE for purity and further confirmed by western blotting using an anti-His tag antibody as the probe. His-tags were removed by protease cleavage, and after determining final protein concentrations, aliquots of the purified protein samples were maintained at −80°C. Protein–protein interactions between SiOBP15 and SiApoLp-III and SiOBP15 and SiFABP5 were analysed using open surface plasmon resonance (SPR) by coupling the SiOBP15 protein (ligand) to a COOH chip until saturation. Purified SiFABP5 and SiApoLp-III proteins (analytes) were then added to analyse the kinetics of the interaction between these proteins. Binding kinetics were analysed by titration of the proteins. All experiments were performed three times with the same ‘chip’, and the entire experiment was repeated with three independent COOH-SiOBP15 chip. Dissociation constants were calculated using TraceDrawer (Ridgeview Instruments ab, Sweden) with a one-to-one interaction model.
(§2) N-phenyl-1-naphthylamine (1-NPN) was used as a probe for competition (displacement) based fluorescent binding assays as previously described. Samples were analysed using a Hitachi F-2000 fluorescence spectrophotometer at an excitation wavelength of 350 nm and an emission wavelength of 420 nm. The binding constant of the purified proteins to 1-NPN was determined over a substrate concentration range from 2 to 20 μM using 1.0 μM protein in 10 mM HEPES, 100 mM NaCl buffer, pH 7.5. Subsequent competition/displacement assays using test ligands were performed using a concentration of 2 μM 1-NPN, 2 μM protein and 2−40 μM test ligand. Dissociation constants (Kd) for 1-NPN were calculated by Scatchard plot analyses using GraphPad Prism 8 Software (GraphPad, La Jolla, CA, USA). The dissociation constants of test ligands (Kapp) in 1-NPN competition assays were calculated using the concentration of test ligand required to displace 50% of the 1-NPN signal (IC50) values using the following equation: Kapp = (IC50)/(1 + (1 − NPN)/K1 – NPN).

SiOBP15 + SiApoLp III = SiOBP15 + SiApoLp III (Solenopsis invicta, UniProt F1DI94); assay: 1-NPN fluorescent binding / competition assay, SiOBP15 co-incubated with SiApoLp-III
Experimental: as §1, §2

SiFABP5 = SiFABP5 (Solenopsis invicta, UniProt Z9HHL8OTK9); assay: 1-NPN fluorescent binding / competition assay, purified SiFABP5; details: 1-NPN displacement; 2 μM 1-NPN, 2 μM protein; read-out: Kapp, competition, SiFABP5
Experimental: as §1, with “His-tags were removed by protease cleavage, and after determining final protein concentrations, aliquots of the purified protein samples were maintained at −80°C.” left out, “Purified SiFABP5 and SiApoLp-III proteins (analytes) were then added to analyse the kinetics of the interaction between these proteins.” left out, “All experiments were performed three times with the same ‘chip’, and the entire experiment was repeated with three independent COOH-SiOBP15 chip.” left out
(§3) N-phenyl-1-naphthylamine (1-NPN) was used as a probe for competition (displacement) based fluorescent binding assays as previously described. Samples were analysed using a Hitachi F-2000 fluorescence spectrophotometer at an excitation wavelength of 350 nm and an emission wavelength of 420 nm. […]

SiOBP15 + SiFABP5 = SiOBP15 + SiFABP5 (Solenopsis invicta, UniProt F1DI94+Z9HHL8OTK9); assay: 1-NPN fluorescent binding / competition assay, SiOBP15 co-incubated with SiFABP5; details: 1-NPN displacement; co-incubation of SiOBP15 with SiFABP5; read-out: Kapp, competition, SiOBP15 + SiFABP5
Experimental: as §1, with “His-tags were removed by protease cleavage, and after determining final protein concentrations, aliquots of the purified protein samples were maintained at −80°C.” left out, “Purified SiFABP5 and SiApoLp-III proteins (analytes) were then added to analyse the kinetics of the interaction between these proteins.” left out, “All experiments were performed three times with the same ‘chip’, and the entire experiment was repeated with three independent COOH-SiOBP15 chip.” left out
as §3

[1] = 1-NPN displacement; co-incubation of SiOBP15 with SiApoLp-III; read-out: Kapp, competition, SiOBP15 + SiApoLp III
[2] = 1-NPN displacement, 2 μM 1-NPN, 2 μM protein, 2-40 μM test ligand, read-out: Kapp, competition, SiOBP15
[3] = read-out: Kapp, competition, SiOBP15 + SiApoLp III; 1-NPN displacement; co-incubation of SiOBP15 with SiApoLp-III

Chain of SiOBP15 (F1DI94 entry or part of it): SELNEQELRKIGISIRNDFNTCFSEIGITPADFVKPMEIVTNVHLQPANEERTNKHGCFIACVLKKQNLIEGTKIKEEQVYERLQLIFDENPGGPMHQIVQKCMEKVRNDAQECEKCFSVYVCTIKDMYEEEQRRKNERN
Chain of SiOBP15 + SiApoLp III (F1DI94 entry or part of it): as above
Chain of SiOBP15 + SiApoLp III (Q6B972 entry or part of it, further chain): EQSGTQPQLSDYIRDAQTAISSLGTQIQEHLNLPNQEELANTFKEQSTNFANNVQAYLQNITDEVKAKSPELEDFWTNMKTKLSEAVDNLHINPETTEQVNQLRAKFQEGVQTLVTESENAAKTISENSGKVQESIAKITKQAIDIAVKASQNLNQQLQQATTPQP
Chain of SiOBP15 + SiFABP5 (F1DI94 23-162 limits assumed): as the sequence (F1DI94 entry or part of it) above
Chain of SiOBP15 + SiFABP5 (Z9HHL8OTK9 1-133): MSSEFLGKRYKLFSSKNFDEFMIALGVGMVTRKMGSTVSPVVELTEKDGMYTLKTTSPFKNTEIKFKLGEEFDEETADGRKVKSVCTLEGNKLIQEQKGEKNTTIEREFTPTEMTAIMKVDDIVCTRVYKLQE
Chain of SiFABP5 (Z9HHL8OTK9 1-133): as above

Compound	dismemberment behaviour towards freeze-killed ants treated with the compound (S. invicta workers)	binding to SiOBP15 (in words) (SiOBP15)	binding to SiOBP15 incubated with SiApoLp-III (in words) (SiOBP15 + SiApoLp III; 1-NPN competition, complex)	Ki (SiOBP15 + SiApoLp III; [1]) [µM]	Ki (SiOBP15; [2]) [µM]	corpse dismemberment, RNAi targeting SiOBP15 + SiApoLp-III (S. invicta workers)	corpse dismemberment, RNAi targeting SiApoLp-III (S. invicta workers)	corpse dismemberment, RNAi targeting SiFABP5 (S. invicta workers)	corpse dismemberment, RNAi targeting SiOBP15 (S. invicta workers)	corpse dismemberment, GFP RNAi (control) workers (S. invicta workers)	also measured
C=CC(=C)CCC=C(C)C [myrcene]	No significant effects										
CCCCCCCCCCC/C=C/CCCCC(=O)O [trans-6-octadecenoic acid]	No significant effects										
CC(=O)C(C)=O [2,3 butanedione]	No significant effects	binds	limited binding	70.9							
3-octenol		able to bind									Ki (SiFABP5): 15.7 µM; Ki (SiOBP15 + SiFABP5): 12.6 µM
c1ccc(Nc2cccc3ccccc23)cc1 [1-NPN, N-phenyl-1-naphthylamine, reference compound]											Kd (SiOBP15; Kd of 1-NPN to SiOBP15 (printed in figure 2C), SiOBP15+NPN, unit inferred): 16.9 µM; Kd (SiOBP15; Kd of 1-NPN to SiOBP15, Scatchard analysis, 1.0 μM protein, 2 to 20 μM 1-NPN): 16.9 µM; Kd (SiOBP15 + SiApoLp III; read-out: dissociation constant of 1-NPN to SiOBP15 + SiApoLp-III; co-incubation; modelled to single 1-NPN binding sites): 18.2 µM
CCCCC/C=C\C/C=C\CCCCCCCC(=O)O [linoleic acid, cis,cis-9,12-linoleic acid]	significantly reduced	able to bind	did not show binding	> 500	25.8	increased^c	no change^c	increased^c	increased^c	decreased^a	effect on behaviour (S. invicta workers): inhibits dismemberment; dismemberment behaviour towards freeze-killed ants treated with the compound (S. invicta workers; listed as cis, cis-9,12-linoleic acid): inhibit this behaviour; dismemberment behaviour towards freeze-killed ants treated with the compound (S. invicta workers; listed as cis,cis-9,12-linoleic acid): significant decrease
CCCCCCCC/C=C\CCCCCCCC(=O)O [oleic acid]	significant decrease; also recorded: reduced dismemberment behaviour; also recorded: inhibit this behaviour	able to bind	did not show binding			no change^d	no change^d	no change^d	no change^d	decreased^a	Ki (SiOBP15): 15.5 µM; Ki (SiOBP15 + SiApoLp III; [3]): > 500 µM; effect on behaviour (S. invicta workers): inhibits dismemberment
CCCCCCCC/C=C/CCCCCCCCCC(=O)O [trans-11-eicosenoic acid]	No significant effects; also recorded: did not alter dismemberment behaviour	No binding		> 500	> 500	no change^e	no change^e	no change^e	no change^e	no change^a	
CC1CCOC1=O (stereo not shown) [3-methyltetrahydro-2-furanone]	No significant effects										Ki (SiOBP15): 16 µM; Ki (SiOBP15 + SiApoLp III; [3]): 57.2 µM
CCCCC=CCCO [3-octenol]				> 500	15.2						
CCCCCCCCCCCCCCCCCCCCCC(=O)O [behenic acid]	significant increase; also recorded: induced dismemberment behaviour; also recorded: induces corpse-dismemberment					decreased^b	decreased^b	no change^b	slight decrease^b	increased^a	Ki (SiOBP15): 14 µM; Ki (SiOBP15 + SiApoLp III; [3]): 19.3 µM; effect on behaviour (S. invicta workers): induces dismemberment
CC(=O)C(C)O (stereo not shown) [acetoin]	No significant effects	binds	limited binding	83.3	26.5						
